Ki and EC50 data for 26 molecules are collected here from patent publication US10836764B2, “5-HT2C receptor agonists and compositions and methods of use” (Arena Pharmaceuticals, Inc., priority 2016, dated 2020).

Read-outs that look alike come from different tables or passages of the source. Where only a bound is given, the exact number is not on record here.

In experiment [1] the target is T1, 5-HT2A receptor (Homo sapiens (Human), UniProt P28223). The experiment is described as follows: DOI radioligand binding assay, 5-HT2A. As to the method: (§1) For the compounds of Table A, the following procedure was used. HEK293 cells stably expressing recombinant 5-HT2 receptors were harvested, suspended in ice-cold phosphate buffered saline, pH 7.4 (PBS), and then centrifuged at 48,000 g for 20 min at 4° C. The resulting cell pellet was then re-suspended in wash buffer containing 20 mM HEPES, pH 7.4 and 0.1 mM EDTA, homogenized on ice using a Brinkman Polytron, and centrifuged (48,000 g for 20 min at 4° C.). The pellet was then resuspended in 20 mM HEPES, pH 7.4, homogenized on ice, and centrifuged (48,000 g for 20 min at 4° C.). Crude membrane pellets were stored at −80° C. until used for radioligand binding assays.
T1 sequence (P28223 whole entry): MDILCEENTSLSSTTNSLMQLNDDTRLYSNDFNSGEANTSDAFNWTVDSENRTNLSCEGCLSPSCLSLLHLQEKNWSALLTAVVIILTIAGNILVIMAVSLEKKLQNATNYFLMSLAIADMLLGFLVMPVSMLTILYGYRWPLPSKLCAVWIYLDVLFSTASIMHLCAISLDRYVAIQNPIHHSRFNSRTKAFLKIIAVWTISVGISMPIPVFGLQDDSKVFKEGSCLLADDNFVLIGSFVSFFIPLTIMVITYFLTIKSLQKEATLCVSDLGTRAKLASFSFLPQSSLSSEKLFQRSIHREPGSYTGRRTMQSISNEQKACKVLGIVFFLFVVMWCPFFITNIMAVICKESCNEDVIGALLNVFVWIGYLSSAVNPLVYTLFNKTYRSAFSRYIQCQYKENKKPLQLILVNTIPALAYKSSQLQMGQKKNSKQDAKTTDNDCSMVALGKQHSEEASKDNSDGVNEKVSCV
(§2) For the compounds of Table A, the following procedure was used. […] Experiments comprised addition of 95 μL of assay buffer (20 mM HEPES, pH 7.4, 10 mM MgCl2), 50 μL of membranes, 50 μL of radioligand stock, and 5 μL of test compound diluted in assay buffer to 96-well microtiter plates, which were then incubated for 1 h at room temperature. Assay incubations were terminated by rapid filtration through PerkinElmer F/C filtration plates under reduced pressure using a 96-well Packard filtration apparatus, followed by washing three times with ice cold assay buffer. Plates were then dried at 45° C. for a minimum of 2 h. Finally, 25 μL of BetaScint™ scintillation cocktail was added to each well and the plates were counted in a Packard TopCount® scintillation counter. In each competition study, test compounds were dosed at ten concentrations with triplicate determinations at each test concentration.

In experiment [2] the target is T2, 5-HT2C receptor (Homo sapiens (Human), UniProt P28335). The experiment is described as follows: DOI radioligand binding assay, 5-HT2C. As to the method:
as §1, §2

Experiment [3] deals with T3, 5-HT2B receptor (Homo sapiens (Human), UniProt P41595). The experiment is described as follows: DOI radioligand binding assay, 5-HT2B. To be noted: [125I]DOI competition, HEK293 cell membranes. The procedure: as §1, §2
T3 sequence (P41595 whole entry): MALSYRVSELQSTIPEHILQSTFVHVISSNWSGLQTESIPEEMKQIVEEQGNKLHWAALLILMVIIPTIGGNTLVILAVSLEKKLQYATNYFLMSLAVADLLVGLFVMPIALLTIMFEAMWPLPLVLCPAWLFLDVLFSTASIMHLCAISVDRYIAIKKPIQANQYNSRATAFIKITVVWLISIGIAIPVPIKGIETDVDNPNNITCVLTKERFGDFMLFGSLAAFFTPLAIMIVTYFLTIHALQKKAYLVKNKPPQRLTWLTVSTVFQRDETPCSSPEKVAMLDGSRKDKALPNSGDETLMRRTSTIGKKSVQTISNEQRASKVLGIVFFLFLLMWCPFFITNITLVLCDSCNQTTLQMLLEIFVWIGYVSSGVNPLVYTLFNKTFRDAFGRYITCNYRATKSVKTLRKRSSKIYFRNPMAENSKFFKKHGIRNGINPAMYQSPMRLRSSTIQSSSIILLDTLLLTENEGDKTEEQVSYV
Experiment [4] addresses T2, 5-HT2C receptor. The experiment is described as follows: IP accumulation assay, 5-HT2C. The experiment is classed as cell-based. The procedure:
(§3) HEK293 cells expressing recombinant 5-HT2 receptors were added to sterile poly-D-lysine-coated 96-well microtiter plates (35,000 cells/well) and labeled with 0.6 μCi/well of [^3H]inositol in myoinositol-free DMEM for 18 h. Unincorporated [^3H]inositol was removed by aspiration and replaced with fresh myoinositol-free DMEM supplemented with LiCl (10 mM final) and pargyline (10 μM final). Serially diluted test compounds were then added and incubation was conducted for 2 h at 37° C. (5-HT2B, and 5-HT2A) and RT (5-HT2C). Incubations were then terminated by lysing cells with the addition of ice-cold 0.1 M formic acid followed by freezing at −80° C. After thawing, total [^3H]inositol phosphates were resolved from [^3H]inositol using AG1-X8 ion exchange resin (Bio-Rad) and [^3H]inositol phosphates were measured by scintillation counting using a Perkin Elmer TopCount® scintillation counter. All EC50 determinations were performed using 10 different concentrations and triplicate determinations were made at each test concentration.

Experiment [5] deals with T1, 5-HT2A receptor. The experiment is described as follows: IP accumulation assay, 5-HT2A. The experiment is classed as cell-based. The procedure: as §3
In experiment [6] the target is T3, 5-HT2B receptor. The experiment is described as follows: IP accumulation assay, 5-HT2B. Format: cell-based. As to the method: as §3
[7] abbreviates: [125I]DOI competition, HEK293 cell membranes, read-out: DOI Binding 5HT2A.
The mark [8] stands for this setting: IP accumulation, HEK293 cells, 2 h at RT, read-out: EC50 5HT2C.
[9] abbreviates: IP accumulation, HEK293 cells, 2 h at 37° C., read-out: EC50 5HT2A.
[10] abbreviates: IP accumulation, HEK293 cells, 2 h at 37° C., read-out: EC50 5HT2B.

T2 sequence (P28335 33-458): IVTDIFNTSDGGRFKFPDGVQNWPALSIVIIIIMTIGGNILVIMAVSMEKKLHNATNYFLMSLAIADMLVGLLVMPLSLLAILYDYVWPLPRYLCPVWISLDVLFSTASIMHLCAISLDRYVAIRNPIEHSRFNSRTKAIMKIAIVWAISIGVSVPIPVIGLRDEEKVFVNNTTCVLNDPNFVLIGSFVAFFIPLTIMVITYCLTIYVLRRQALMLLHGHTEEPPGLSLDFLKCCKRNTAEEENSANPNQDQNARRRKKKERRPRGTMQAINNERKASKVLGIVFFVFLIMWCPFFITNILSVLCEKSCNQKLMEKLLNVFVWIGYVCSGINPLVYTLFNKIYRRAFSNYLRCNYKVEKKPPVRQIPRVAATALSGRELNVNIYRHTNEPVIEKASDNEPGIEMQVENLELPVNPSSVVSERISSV

`CCc1c(CC2CCCCC2)cnc2c1CC[C@@H]1CNCCN21` [Compound 164, (R)-3-(cyclohexylmethyl)-4-ethyl-6,6a,7,8,9,10-hexahydro-5H-pyrazino[1,2-a][1,8]naphthyridine]: the results for the Ki on 5-HT2A receptor [1] (setting [7]) and on 5-HT2C receptor [2] (read-out: DOI Binding 5HT2C) were 703 nM and 233 nM, respectively.

With `N#CCCc1ccnc2c1CC[C@@H]1CNCCN21` [Compound 142, (R)-3-(6,6a,7,8,9,10-hexahydro-5H-pyrazino[1,2-a][1,8]naphthyridin-4-yl)propanenitrile], the figures for the Ki at 5-HT2A receptor [1] (setting [7]) and at 5-HT2B receptor [3] were 840 nM and 665 nM, respectively.

For the molecule `c1cc(CC2CCCCO2)c2c(n1)N1CCNC[C@H]1CC2` (stereo partly drawn) [Compound 132, (6aR)-4-((tetrahydro-2H-pyran-2-yl)methyl)-6,6a,7,8,9,10-hexahydro-5H-pyrazino[1,2-a][1,8]naphthyridine], the Ki is 212 nM on 5-HT2A receptor [1] (setting [7]) and 1090 nM at 5-HT2B receptor [3].

With `CCCCc1ccnc2c1CC[C@@H]1CNCCN21` [Compound 112, (R)-4-butyl-6,6a,7,8,9,10-hexahydro-5H-pyrazino[1,2-a][1,8]naphthyridine], the results for the Ki on 5-HT2A receptor [1] (setting [7]) and at 5-HT2C receptor [2] were 10.6 nM and 0.5 nM, respectively.

Take `CC(C)OCc1ccnc2c1CC[C@@H]1CNCCN21` [Compound 145, (R)-4-(isopropoxymethyl)-6,6a,7,8,9,10-hexahydro-5H-pyrazino[1,2-a][1,8]naphthyridine]: the Ki at 5-HT2A receptor [1] (setting [7]) turned out to be 222 nM; at 5-HT2B receptor [3], 209 nM.

The molecule `CC(C)c1ccnc2c1CC[C@@H]1CNCCN21` [Compound 111, (R)-4-isopropyl-6,6a,7,8,9,10-hexahydro-5H-pyrazino[1,2-a][1,8]naphthyridine] showed a Ki at 5-HT2C receptor [2] of 0.874 nM.

As to `COCCc1ccnc2c1CC[C@@H]1CNCCN21` [Compound 107, (R)-4-(2-methoxyethyl)-6,6a,7,8,9,10-hexahydro-5H-pyrazino[1,2-a][1,8]naphthyridine], the Ki on 5-HT2A receptor [1] (setting [7]) was determined as 99.5 nM; at 5-HT2B receptor [3] it was 177 nM.

For `C/C=C/Cc1ccnc2c1CC[C@@H]1CNCCN21` [Compound 144, (R,E)-4-(but-2-en-1-yl)-6,6a,7,8,9,10-hexahydro-5H-pyrazino[1,2-a][1,8]naphthyridine], the Ki at 5-HT2A receptor [1] (setting [7]) was determined as 5.01 nM; on 5-HT2C receptor [2], 0.548 nM.

Regarding `FC(F)(F)CCc1ccnc2c1CC[C@@H]1CNCCCN21` [Compound 157, (R)-4-(3,3,3-trifluoropropyl)-5,6,6a,7,8,9,10,11-octahydro-[1,4]diazepino[1,2-a][1,8]naphthyridine], the Ki is 1140 nM on 5-HT2A receptor [1] (setting [7]) and 721 nM at 5-HT2B receptor [3].

In the case of `CCCCCc1ccnc2c1CC[C@@H]1CNCCN21` [Compound 108, (R)-4-pentyl-6,6a,7,8,9,10-hexahydro-5H-pyrazino[1,2-a][1,8]naphthyridine], the Ki at 5-HT2A receptor [1] (setting [7]) is 2.3 nM; at 5-HT2C receptor [2], 0.401 nM.

On to `c1ncc2c(c1CC1CCCCC1)CC[C@@H]1CNCCN21` [Compound 174, (R)-4-(cyclohexylmethyl)-6,6a,7,8,9,10-hexahydro-5H-pyrazino[1,2-a][1,7]naphthyridine], for which the Ki came out at 107 nM at 5-HT2A receptor [1] (setting [7]) and 140 nM on 5-HT2B receptor [3].

Regarding `CCCc1ccnc2c1CC[C@@H]1CNCCN21` [Compound 113, (R)-4-propyl-6,6a,7,8,9,10-hexahydro-5H-pyrazino[1,2-a][1,8]naphthyridine], at 5-HT2C receptor [4], the EC50 came out at 0.0656 nM. The Ki on 5-HT2A receptor [1] (setting [7]) was found to be 6.85 nM; at 5-HT2C receptor [2], 0.162 nM.

In the case of `CN1CCN2c3nccc(CCC(F)(F)F)c3CC[C@@H]2C1` [Compound 168, (R)-8-methyl-4-(3,3,3-trifluoropropyl)-6,6a,7,8,9,10-hexahydro-5H-pyrazino[1,2-a][1,8]naphthyridine], the Ki on 5-HT2A receptor [1] (setting [7]) is 58 nM; on 5-HT2B receptor [3], 331 nM.

On to `CCc1c(CCC#N)cnc2c1CC[C@@H]1CNCCN21` [Compound 162, (R)-3-(4-ethyl-6,6a,7,8,9,10-hexahydro-5H-pyrazino[1,2-a][1,8]naphthyridin-3-yl)propanenitrile], for which the Ki was found to be 1260 nM on 5-HT2A receptor [1] (setting [7]) and 251 nM on 5-HT2B receptor [3].

As to `Fc1ccccc1Cc1ccnc2c1CC[C@@H]1CNCCN21` [Compound 116, (R)-4-(2-fluorobenzyl)-6,6a,7,8,9,10-hexahydro-5H-pyrazino[1,2-a][1,8]naphthyridine], the EC50 is 0.314 nM at 5-HT2C receptor [4] and 152 nM on 5-HT2A receptor [5]. For the same molecule, the Ki came to 2.65 nM on 5-HT2A receptor [1] (setting [7]) and 0.304 nM at 5-HT2C receptor [2].

For `c1cc2c(c(CC3CCC3)n1)CC[C@@H]1CNCCN21` [Compound 154, (R)-7-(cyclobutylmethyl)-2,3,4,4a,5,6-hexahydro-1H-pyrazino[1,2-a][1,6]naphthyridine], the EC50 on 5-HT2C receptor [4] was 5580 nM; on 5-HT2B receptor [6] it was at least 100000 nM; at 5-HT2A receptor [5], at least 100000 nM.

For `CCc1ccnc2c1CC[C@@H]1CNCCN21` [Compound 110, (R)-4-ethyl-6,6a,7,8,9,10-hexahydro-5H-pyrazino[1,2-a][1,8]naphthyridine], the Ki on 5-HT2A receptor [1] (setting [7]) was 16.1 nM; on 5-HT2C receptor [2], 0.562 nM.

In the case of `Brc1ccnc2c1CC[C@@H]1CNCCCN21` [Compound 156, (R)-4-bromo-5,6,6a,7,8,9,10,11-octahydro-[1,4]diazepino[1,2-a][1,8]naphthyridine], the Ki amounted to 1390 nM at 5-HT2A receptor [1] (setting [7]) and 127 nM on 5-HT2B receptor [3].

Take `c1ccc(Cc2ccnc3c2CC[C@@H]2CNCCN32)cc1` [Compound 106, (R)-4-benzyl-6,6a,7,8,9,10-hexahydro-5H-pyrazino[1,2-a][1,8]naphthyridine]: the EC50 is 0.116 nM at 5-HT2C receptor [4] (setting [8]) and 53.2 nM on 5-HT2A receptor [5] (setting [9]). The Ki at 5-HT2A receptor [1] (setting [7]) turned out to be 1.19 nM; on 5-HT2C receptor [2] it was 0.277 nM.

`c1cc2c(cn1)N1CCNC[C@H]1CC2` [Compound 153, (R)-6,6a,7,8,9,10-hexahydro-5H-pyrazino[1,2-a][1,7]naphthyridine]: the EC50 on 5-HT2C receptor [4] (setting [8]) stood at 329 nM; at 5-HT2B receptor [6] (setting [10]) it was 779 nM; on 5-HT2A receptor [5] (setting [9]), 100000 nM.

With `Brc1cncc2c1CC[C@@H]1CNCCN21` [Compound 172, (R)-4-bromo-6,6a,7,8,9,10-hexahydro-5H-pyrazino[1,2-a][1,7]naphthyridine], the figures for the Ki on 5-HT2A receptor [1] (setting [7]) and on 5-HT2B receptor [3] were 72.3 nM and 13 nM, respectively.

As to `CCc1c(CC2CCCCO2)cnc2c1CC[C@@H]1CNCCN21` (stereo partly drawn) [Compound 165, (6aR)-4-ethyl-3-((tetrahydro-2H-pyran-2-yl)methyl)-6,6a,7,8,9,10-hexahydro-5H-pyrazino[1,2-a][1,8]naphthyridine], the figures for the Ki at 5-HT2A receptor [1] (setting [7]) and on 5-HT2C receptor [2] (read-out: DOI Binding 5HT2C) were 890 nM and 570 nM, respectively.

In turn, `c1cc(CC2CCCC2)c2c(n1)N1CCNC[C@H]1CC2` [Compound 170, (R)-4-(cyclopentylmethyl)-6,6a,7,8,9,10-hexahydro-5H-pyrazino[1,2-a][1,8]naphthyridine] registered a Ki on 5-HT2C receptor [2] of 0.79 nM.

Turning to `c1csc(-c2ccnc3c2CC[C@@H]2CNCCN32)c1` [Compound 126, (R)-4-(thiophen-2-yl)-6,6a,7,8,9,10-hexahydro-5H-pyrazino[1,2-a][1,8]naphthyridine], the results for the Ki at 5-HT2A receptor [1] (setting [7]) and on 5-HT2B receptor [3] were 68.8 nM and 122 nM, respectively.

Turning to `COc1ccc(-c2ccnc3c2CC[C@@H]2CNCCN32)cc1` [Compound 135, (R)-4-(4-methoxyphenyl)-6,6a,7,8,9,10-hexahydro-5H-pyrazino[1,2-a][1,8]naphthyridine], the EC50 on 5-HT2C receptor [4] (setting [8]) was 5410 nM; at 5-HT2B receptor [6] (setting [10]) it was at least 100000 nM; on 5-HT2A receptor [5], at least 100000 nM.

Consider `Fc1cccc(Cc2ccnc3c2CC[C@@H]2CNCCN32)c1` [Compound 115, (R)-4-(3-fluorobenzyl)-6,6a,7,8,9,10-hexahydro-5H-pyrazino[1,2-a][1,8]naphthyridine], for which the figures for the EC50 on 5-HT2C receptor [4] (setting [8]) and at 5-HT2A receptor [5] (setting [9]) were 0.19 nM and 37.2 nM, respectively. Also, the Ki at 5-HT2A receptor [1] amounted to 0.506 nM; on 5-HT2C receptor [2], 0.195 nM.

One may read the EC50 as the midpoint of the concentration-response curve.
